Measurements as given in US20230129651A1, “HAIRPIN STRUCTURE NUCLEIC ACID MOLECULES CAPABLE OF MODULATING TARGET GENE EXPRESSION AND USES THEREOF” (KOREA ADVANCED INSTITUTE OF SCIENCE AND TECHNOLOGY, priority 2021, published 2023).
“Also recorded” adds a separate entry of the source. {Cy5.5} = Cy5.5 fluorophore label

Experiments:
[1] = test system: FLT3 mutated AML cell line MV4-11; test: Cell viability of MV4-11 after transfection; format: cell-based
Protocol: (§1) The miRNA triggers were assayed for cytotoxicity and apoptosis induction, using the CCK-8 (Cell Counting Kit-8) (Dojindo, Kumamoto, Japan) according to the manufacturer's instruction. Cells were incubated in 96-well plates (5×10^3 cells/well) at 37° C. for 24 hours under a 5% CO2 atmosphere, followed by transfection. Three days after transfection, the medium was removed. A 10-fold dilution of CCK-8 solution in DMEM was added to the cells which were then incubated at 37° C. for 2 hours. After incubation, absorbance was read at 450 nm on Tecan Infinite M200 pro microplate reader (Mnnedorf, Switzerland).
A linear miRNA trigger (Mcl-1_155_155 or Bcl-2_155_155) which could bind to miR-155 and target mcl-1 or bcl-2 gene was prepared and transfected into the FLT3 mutated AML cell line MV4-11 which was then measured for cell viability. The results are depicted in FIGS. 31a and 31b. Sequences are listed in Tables 19 and 21 for the linear miRNA triggers prepared above, and in Tables 18 and 19 for the controls Luc-Luc-Luc and luc-155-155, respectively. Every nucleotide of the triggers and the controls were chemically modified with 2′-OMe.

[2] = test system: cleaved PARP; test: Western blotting of apoptotic marker in HL-60 after siRNA knockdown; format: cell-based; conditions: HL-60 cells
Protocol: miRNA triggers were transfected into cells in the same manner as in Reference Example 4. After 72 hours, the cells were collected using a cell scraper and lysed with a RIPA buffer (NaCl 150 mM, EDTA 5 mM, Tris 50 mM, NP-40 1.0%, sodium deoxycholate 0.5%, SDS 0.1%). The cell lysate was sonicated 15 times, each for 20 sec, with a halt for 30 sec every sonication. Following centrifugation at 5,000 g for 5 min, the supernatant was taken and used to extract proteins therefrom. A total of 30-40 μg of protein sample was separated in 10-15% SDS-PAGE gel and transferred onto a PVDF membrane through a semi-dry blotting system. The membrane was blocked for 1 hour in 5% skimmed milk and incubated for 2 hours with a 1,000-fold dilution of a primary antibody in, 1% skimmed milk. […] The membrane incubated with the secondary antibody was washed three times with 1×PBST for 10 min each wash, and then reacted with Clarity Western ECL Substrate (#1705061, Bio-Rad), after which images were obtained and analyzed using ChemiDoc (Bio-rad, Hercules, USA). […]

[3] = test system: miR-155; test: miR-155 expression in FLT3-ITD mutated AML cell line after treatment with AML therapeutic agents; format: cell-based; conditions: NOLM-14; IC50 dose, 37° C., 72 hours
Protocol: The FLT3-ITD mutated AML cell line (NOLM-14) was treated with an IC50 dose of cytarabine, azacitidine, decitabine, venetoclax, or gilteritinib, which is used as standard therapeutic agents for AML, at 37° C. for 72 hours, followed by measuring expression levels of miR-155.

[4] = test system: MCF-7 breast cancer cells; test: Cell viability of MCF-7 after transfection; format: cell-based; conditions: siRNA 60 nM
Protocol: as §1
An siRNA targeting bcl-2, bcl-xL, or mcl-1 was transfected into MCF-7 breast cancer cells and PANC-1 pancreatic cancer cells. By using qRT-PCR, establishment was made of a condition under which the expression of each target gene is decreased by 80% or more (transfection was performed at a concentration of 60 nM with the aid of Lipofectamine). […] Under the same condition of decreasing the expression of each target gene by 80% or more, the cells transfected with the siRNAs were measured for apoptosis, and the results are depicted in FIGS. 14a and 14b.
Linear miRNA triggers that could bind to miR-141 or let7f and target bcl-xL or mcl-1 were prepared and transfected alone or in combination into the breast cancer cell line MCF-7 which was then measured for cell viability. […]

[5] = test system: Hela cells; test: Cell viability / apoptosis of Hela cells after transfection; format: cell-based
Protocol: as §1
(§2) The linear miRNA triggers or siRNAs (siLuc and siMcl-1) prepared above were transfected into Hela, Hela-141, and Hela-200c cells which were then measured for cell viability. The results are depicted in FIG. 15.
(§3) The hairpin miRNA triggers prepared above were transfected into Hela and Hela-141 cells which were then assayed for apoptosis. As a control, the siRNA (siMcl-1; Table 14) which can repress the expression of mcl-1 was transfected to Hela and Hela-141 cells and measured for apoptotic activity.

[6] = test system: Hela-141 cells; test: Cell viability / apoptosis of Hela-141 cells after transfection; format: cell-based
Protocol: as §1, §2, §3

[7] = test system: Hela-200c cells; test: Cell viability / apoptosis of Hela-200c cells after transfection; format: cell-based
Protocol: as §1, §2

[8] = test system: Mcl-1 protein; test: Western blotting of Mcl-1 protein in Hela-141 cells; format: cell-based; conditions: 5 to 120 nM
Protocol: miRNA triggers were transfected into cells in the same manner as in Reference Example 4. After 72 hours, the cells were collected using a cell scraper and lysed with a RIPA buffer (NaCl 150 mM, EDTA 5 mM, Tris 50 mM, NP-40 1.0%, sodium deoxycholate 0.5%, SDS 0.1%). The cell lysate was sonicated 15 times, each for 20 sec, with a halt for 30 sec every sonication. Following centrifugation at 5,000 g for 5 min, the supernatant was taken and used to extract proteins therefrom. A total of 30-40 μg of protein sample was separated in 10-15% SDS-PAGE gel and transferred onto a PVDF membrane through a semi-dry blotting system. The membrane was blocked for 1 hour in 5% skimmed milk and incubated for 2 hours with a 1,000-fold dilution of a primary antibody in, 1% skimmed milk. […] The membrane incubated with the secondary antibody was washed three times with 1×PBST for 10 min each wash, and then reacted with Clarity Western ECL Substrate (#1705061, Bio-Rad), after which images were obtained and analyzed using ChemiDoc (Bio-rad, Hercules, USA).
A linear miRNA trigger (Mcl-1-141-141; Table 15) that could bind to miR-141 and target mcl-1 was prepared while a linear miRNA trigger (Luc-141-141; Table 9) that could bind to miR-141 and target Luc (luciferase) was used as a control. […] Then, proteins were extracted from the Hela-141 cells and quantitatively analyzed for Mcl-1 protein level by western blotting. […]

[9] = test system: MOLM-14, MV4-11 and Hela cells; test: Fluorescence detection after transfection of Cy5.5-labeled miRNA trigger into cells (IVIS 100); format: cell-based; conditions: Lipofectamine
Protocol: With the aid of Lipofectamine, the linear miRNA trigger (5′-Cy5.5-miR-155-miR-155-PKR-3′) was transfected into the FLT3-ITD mutant AML cell lines MOLM-14 and MV4-11 and the solid cancer cell line Hela. […] Subsequent animal tests were performed with the trigger.

[10] = In vivo imaging after tail vein injection of Cy5.5-labeled miRNA trigger; design: species or system C57BL/6 (B6) mice
Protocol: As a negative control, PBS was injected at a dose of 200 μl into mice.
Days 1, 2, and 4 after miRNA trigger injection, in vivo imaging was performed using IVIS 100 (PerkinElmer).

[11] = FACS detection of Cy5.5 in hematopoietic origin cells of injected mice; format: in vivo, C57BL/6 (B6) mice
Excerpt: Day 4 after miRNA trigger injection in Example 6-2, mice in the miRNA trigger-administered test group (N=4) and the PBS-administered control (N=4) were sacrificed and specimens (blood cells) were taken from peripheral blood vessels, the spleen, and the bone marrow (femur blood cells). Erythrocytes were removed using an RBC lysis buffer.
The cells in peripheral blood sample were gated through three steps (step 1: debris removal, step 2: selection of single blood cell population, step 3: Cy5.5 detection) to select single blood cells of quality. Through FACS, blood cells retaining Cy5.5 were identified. The results are depicted in FIGS. 20a to 20c.
Spleen-derived hematopoietic cells and bone marrow hematopoietic cells of mice were gated in the foregoing manner and Cy5.5 was detected. The results are depicted in FIGS. 21 and 22. As shown in FIGS. 21a to 21c, 8.7-13.7% of total spleen-derived hematopoietic cells expressed Cy5.5. As in peripheral blood cells, Cy5.5 was detected mainly in lymphocytes and monocytes of the spleen-derived hematopoietic cells.

In the case of “Mcl-1_155_155: linear miRNA trigger binding miR-155 and targeting mcl-1; SEQ ID NO 105 (UUAUGUUUCAGGUUCAGGGGGAUUAUGUUUCAGGUUCAGGGGGACCGAACUACGUAGC; all 2'-O-methyl, backbone not given here)”, the “apoptosis (cell viability)” value [1] is reported as “induce MV4-11 to undergo apoptosis”.

In the case of “siBcl-2: siRNA targeting bcl-2; SEQ ID NO 62 (AUCAAUCUUCAGCACUCUC; listed as RNA, chemistry not given here)”, the “expression of apoptotic marker cleaved PARP” value [2] is reported as “upregulated”.

For `Nc1ccn([C@@H]2O[C@H](CO)[C@@H](O)[C@@H]2O)c(=O)n1` [cytarabine], the miR-155 expression [3] was “did not repress miR-155 express”.

With “siMcl-1: siRNA targeting mcl-1; SEQ ID NO 64 (AAAUUCGAUACUUCCUUCG; listed as RNA, chemistry not given here) [reference compound]” the “cell viability / apoptosis after siRNA (in words)” value [4] was “decreased in cell viability”, the “apoptosis / cell viability (in words)” value [5] was “induced apoptosis; also recorded: brought about an apoptotic effect” and the “apoptosis / cell viability (in words)” value [6] was “induced apoptosis; also recorded: brought about an apoptotic effect”. For the same molecule, the “apoptosis / cell viability (in words)” value [7] was “induced apoptosis”.

For “Mcl-1_141_141: linear miRNA trigger binding miR-141 and targeting Mcl-1 gene; SEQ ID NO 65 (110 in Table 24) (CCAUCUUUACCUCACAGUGUUACCAUCUUUACCUCACAGUGUUACCGAACUACGUAGC; all 2'-O-methyl, backbone not given here)”, the apoptosis induced [6] was “about 40%”, the “apoptosis / cell viability (in words)” value [7] was “no significant influence on cell viability” and the “Mcl-1 protein level compared to control Luc-141-141” value [8] was “significantly decreased in Mcl-1 protein level”.

B1: Cy5.5_PKR-155_155: linear miRNA trigger binding miR-155 and targeting PKR, labeled with Cy5.5 fluorophore; SEQ ID NO 69 (nucleic acid)
chain: UUAUGUUUCAGGUUCAGGGGGAUUAUGUUUCCAGGUUCAGGGGGAUAUGUGAGGCAGAGAACGA
modifications: all 2'-O-methyl, 5' {Cy5.5}, backbone not given here
With B1 the “fluorescence in transfected cells” value [9] was “Fluorescence was detected”, the “time Cy5.5 fluorescence detected in the mouse body” value [10] was ≥ 4 days and the “toxicity over the period of in vivo imaging” value [10] was “particular toxicity was detected from none of the mice”. For the same molecule, the “organs in which Cy5.5 was detected” value ([10]; Invivofectamine, 120 nM, days 1, 2 and 4) was “detected in main organs including the liver, the spleen, the bone marrow, and the heart, and the hematopoietic organ”, the “rate of bone marrow cells expressing Cy5.5” value ([11]; bone marrow, day 4) was 1.0-2.0% and the “Cy5.5 detected in gated lymphocytes” value ([11]; bone marrow, lymphocytes gated through 4 steps, day 4) was 5.4-9.6%. For the same molecule, the “Cy5.5 detection in blood cells (FACS profile)” value ([11]; day 4 after injection) was “detected in blood cells, especially lymphocytes and monocytes”, the “rate of Cy5.5 detection based on total number of single blood cells” value ([11]; peripheral blood, day 4) was 6.2-15.9% and the “spleen-derived hematopoietic cells expressing Cy5.5” value ([11]; spleen, day 4) was 8.7-13.7%.
